This is an account of results in patent publication US12533370B2, “Compositions and methods of potentiating antimicrobials” (priority 2016, dated 2026).

The subject of one experiment is Streptococcus pneumoniae. Kind of experiment: MIC for carbenicillin with and without THC, Example 6. The experiment is classed as cell-based. To be noted: agent alone, OD cutoff ≤0.1. As to the method:
(§1) In certain embodiments, the method of testing the anti-bacterial efficacy of a composition (or any test solution), comprises the following steps: (a) inoculation of bacteria (e.g. from a −80° C. stock) into 3 mL Muller Hinton (MH) medium; (b) incubation of the inoculated medium at 37° C. under agitation of 250 rpm for 18-20 hours, thus obtaining a starter culture; (c) diluting the starter culture using saline to obtain working cultures of 5*10^5 or 10^6 bacteria/mL; (d) combining the […] and the tested composition in a test container, e.g. a 96-well plate; (e) incubating the test container at 37° C. under shaking (100 rpm) for 18-20 hours; and (f) determining the viability of bacteria in the test container, thus determining the anti-bacterial efficacy of the composition, e.g. via determining the optical density (OD) of the bacterial culture. Routine calibrations and/or modifications of this method are well within the capabilities of any person of average skill in the art.
(§2) The term “minimal inhibitory concentration” or “MIC” as used herein relates to the minimal concentration of an agent, or a combination of agents, in which bacteria are substantially killed or at least not substantially grow. […]

The subject of experiment [1] is methicillin-resistant Staphylococcus aureus (MRSA). Briefly: MIC for gentamicin with and without THC on MRSA, Example 4. The experiment is classed as cell-based. As for the experimental part: as §1, §2
Experiment [2] relates to established S. aureus ATCC strain 25923 (gentamicin-sensitive) biofilm. Kind of experiment: MIC for gentamicin with and without THC on established biofilm, Example 10. The experiment is classed as cell-based, Staphylococcus aureus. To be noted: agent alone; OD cutoff ≤0.1. As for the experimental part:
(§3) The term “minimal inhibitory concentration” or “MIC” as used herein relates to the minimal concentration of an agent, or a combination of agents, in which bacteria are substantially killed or at least not substantially grow. The cutoff value to determine the MIC in the experimental section was set to an optical density (OD) value of ≤0.1 after an overnight incubation of the bacteria together with the tested antibacterial agent(s).
The goal of the current experiment was to determine the minimal inhibitory concentration (MIC) for gentamicin with and without THC on an established S. aureus ATCC strain 25923 (gentamicin-sensitive) biofilm. The cutoff value to determine the MIC was set to an optical density (OD) value of ≤0.1.

Experiment [3] concerns S. aureus ATCC strain 25923 (gentamicin-sensitive). Briefly: MIC for gentamicin with and without THC, Example 3. The experiment is classed as cell-based, Staphylococcus aureus. As to conditions: OD cutoff ≤0.1. As to the method: as §1, §2
The test system is the same in experiment [4]. Kind of experiment: Minimal bactericidal concentration (MBC), Example 1. In kind it is cell-based, Staphylococcus aureus. As to the method: The goal of the current experiment was to determine the minimal bactericidal concentrations (MBC) for THC with and without PEA on S. aureus ATCC strain 25923 (gentamicin-sensitive).
• 1. Incubation of the S. aureus (from a −80° C. stock) in 3 ml Muller Hinton (MH, Difco) medium at 37° C. under agitation of 250 rpm for 18-20 hours (this culture served as a starter for the experiment); • 2. Dilution of the starter culture using saline to obtain working cultures of 5*10^5 and 10^6 C.F.U/mL bacteria, respectively. • 3. Diluting the THC (0.125 mg/mL in saline) with or without PEA or gentamicin in a 96-well plate. • 4. Incubation of the plates at 37° C. under shaking (100 rpm) for 18-20 hours. • 5. In the following day, the bacteria in the wells suspended in saline were evaluated for their C.F.U/mL to determine the MBC.

For experiment [5] the test system is unchanged. Briefly: Minimal inhibitory concentration (MIC) for gentamicin with and without THC, Example 2. In kind it is cell-based, Staphylococcus aureus. To be noted: OD cutoff ≤0.1. As for the experimental part: as §1, §2
Experiment [6] relates to methicillin-resistant Staphylococcus aureus (MRSA). Kind of experiment: MIC for ampicillin with and without THC on MRSA, Example 5. In kind it is cell-based. To be noted: read-out: MIC value. As to the method: as §1, §2
Experiment [7] deals with methicillin-resistant Staphylococcus aureus (MRSA) violent clinical strain 760330509. Briefly: MIC and Fic index for gentamicin with and without CBG, Example 8. In kind it is cell-based. To be noted: for MIC value: agent alone. As for the experimental part: as §3
(§4) Fractional Inhibitory Concentration values (FicA and FicB) and Fic index were calculated for each combination of compounds and clinical isolate using the following standard equations for this analysis: Fic index=FicA+FicB FicA=MIC of compound A (CBG) in combination/MIC of compound A alone. FicB=MIC of compound B (gentamicin) in combination/MIC of compound B alone.
(§5) Synergy is defined as a Fic index value of ≤0.5. Indifference or no interaction will be defined as a FIC index value of >0.5 and <4. Antagonism will be defined as a FIC index value of >4. When the FIC index value is within the range of 0.5-1, the combination is considered to be non-synergistic or additive.
The goal of the current experiment was to determine the minimal inhibitory concentration (MIC) for gentamicin with and without CBG on methicillin-resistant Staphylococcus aureus (MRSA) violent clinical strain 760330509 from Souraski Medical Center, Tel Aviv, Israel. The cutoff value to determine the MIC was set to an optical density (OD) value of ≤0.1.
(§6) Fractional Inhibitory Concentration values (FicA and FicB) and Fic index were calculated for each combination of compounds and clinical isolate using the same calculation as in example 7.

For experiment [8], the system named is MRSA/VISA clinical strain No 111. Kind of experiment: MIC and Fic index for gentamicin with and without CBD, Example 9. In kind it is cell-based, Staphylococcus aureus. To be noted: for MIC value: agent alone. As to the method:
as §3, §4, §5
The goal of the current experiment was to determine the minimal inhibitory concentration (MIC) for gentamicin with and without CBD on methicillin-resistant Staphylococcus aureus (MRSA) and […] Staphylococcus aureus (MRSA) (VISA) clinical strain No 111 from Souraski Medical Center, Tel Aviv, Israel. The cutoff value to determine the MIC was set to an optical density (OD) value of ≤0.1.
as §6

For experiment [9] the test system is unchanged. Briefly: MIC and Fic index for gentamicin with and without CBG, Example 7. As to conditions: for MIC value: agent alone, OD cutoff ≤0.1. The experiment is classed as cell-based, Staphylococcus aureus. As for the experimental part:
as §3
The goal of the current experiment was to determine the minimal inhibitory concentration (MIC) for gentamicin with and without CBG on methicillin-resistant Staphylococcus aureus (MRSA) and […] Staphylococcus aureus (MRSA) (VISA) clinical strain No 111 from Souraski Medical Center, Tel Aviv, Israel. The cutoff value to determine the MIC was set to an optical density (OD) value of ≤0.1.
as §4, §5

Setting [10] is: Staphylococcus aureus, read-out: MIC value.
Setting [11] is: Staphylococcus aureus, ATCC25923, agent alone.

Values after ≈ are worked out from the molar mass of the structure shown.

As to `CCCCCc1cc(O)c2c(c1)OC(C)(C)[C@@H]1CCC(C)=C[C@@H]21` [THC, tetrahydrocannabinol], the MIC in the experiment with Streptococcus pneumoniae was about 2 µg/mL; in experiment [1] (setting [10]), about 2 µg/mL; in [3] (setting [11]), about 2 µg/mL; in experiment [5] (setting [11]) it was about 1 µg/mL; in experiment [6], about 2 µg/mL. The “MIC value on established biofilm” value in experiment [2] is on record as “about 0.004 mg/mL”. In addition, the MBC in experiment [4] (Staphylococcus aureus, ATCC25923, agent alone, S. aureus ATCC 25923) was about 7.8 µg/mL (≈ 24.8 µM). Besides, the “fold decrease of MBC compared to gentamicin alone” value in [4] (THC alone vs gentamicin alone) was 32 fold.

On to gentamicin, for which the MIC value entry was “about 0.125 mg/mL” in [1] (agent alone, OD cutoff ≤0.1); “about 128 μg/mL” in [7] (MRSA strain 760330509, OD cutoff ≤0.1); 128 µg/mL in experiment [7] (MRSA strain 760330509, OD cutoff ≤0.1, listed as Gen.); “about 0.002 mg/mL” in experiment [3] (agent alone); “about 256 μg/mL” in experiment [8] (MRSA/VISA strain No 111, OD cutoff ≤0.1); 256 µg/mL in experiment [8] (MRSA/VISA strain No 111, OD cutoff ≤0.1, listed as Gen.). Moreover, the MIC value result in experiment [9] (MRSA/VISA strain No 111) was “about 256 μg/mL”; in experiment [9] (MRSA/VISA strain No 111, listed as Gen.), 256 µg/mL; in [5] (agent alone), “about 0.001 mg/mL”. Also, the “MIC value on established biofilm” value in experiment [2] is listed as “over 0.002 mg/mL”. In addition, the entries for the “FicB value (MIC of gentamicin in combination/MIC alone)” value in experiment [7] (32 μg/mL Gen.+1 μg/mL CBG), in [8] (32 μg/mL Gen.+1 μg/mL CBD) and in [9] (64 μg/mL Gen.+1 μg/mL CBG) were 0.25, 0.125 and 0.25, respectively. Besides, in experiment [4] (agent alone, S. aureus ATCC 25923), the MBC value is 250 µg/mL.

For `CC1(C)S[C@@H]2[C@H](NC(=O)C(C(=O)O)c3ccccc3)C(=O)N2[C@H]1C(=O)O` (stereo partly shown) [carbenicillin], in the experiment with Streptococcus pneumoniae, the MIC is about 0.2 µg/mL.

On to `CCCCCc1cc(O)c(C/C=C(\C)CCC=C(C)C)c(O)c1` [CBG, cannabigerol], for which the “FicA value (MIC of CBG in combination/MIC alone)” value in [7] (32 μg/mL Gen.+1 μg/mL CBG) and in experiment [9] (64 μg/mL Gen.+1 μg/mL CBG) was 0.125 each time. The MIC is about 8 µg/mL in experiment [7] (Staphylococcus aureus, MRSA, read-out: MIC value, agent alone, MRSA strain 760330509, OD cutoff ≤0.1) and 8 µg/mL in experiment [9] (setting [10]). Moreover, the “MIC value for CBG alone” value in [9] (MRSA/VISA strain No 111) is recorded as “about 8 n g/mL”.

Regarding `CC1(C)S[C@@H]2[C@H](NC(=O)[C@H](N)c3ccccc3)C(=O)N2[C@H]1C(=O)O` [ampicillin], the MIC in experiment [6] was about 500 µg/mL.

`C=C(C)[C@@H]1CCC(C)=C[C@H]1c1c(O)cc(CCCCC)cc1O` [CBD, cannabidiol]: the “FicA value (MIC of CBD in combination/MIC alone)” value in [8] (32 μg/mL Gen.+1 μg/mL CBD) was determined as 0.125. Also, the MIC in experiment [8] (Staphylococcus aureus, read-out: MIC value, agent alone, MRSA/VISA strain No 111, OD cutoff ≤0.1) was about 8 µg/mL.

As usually defined, the MIC is the lowest concentration found to suppress growth. For orientation: MBC means the smallest concentration meeting the test's criterion for killing. Low readings indicate more potent killing, high ones less potent killing.
